We go through 20 compounds from US20250215029A1 (Recludix Pharma, Inc., priority 2022, published 2025).

SMILES strings stand for the structures.

T1 sequence (P40763 whole entry): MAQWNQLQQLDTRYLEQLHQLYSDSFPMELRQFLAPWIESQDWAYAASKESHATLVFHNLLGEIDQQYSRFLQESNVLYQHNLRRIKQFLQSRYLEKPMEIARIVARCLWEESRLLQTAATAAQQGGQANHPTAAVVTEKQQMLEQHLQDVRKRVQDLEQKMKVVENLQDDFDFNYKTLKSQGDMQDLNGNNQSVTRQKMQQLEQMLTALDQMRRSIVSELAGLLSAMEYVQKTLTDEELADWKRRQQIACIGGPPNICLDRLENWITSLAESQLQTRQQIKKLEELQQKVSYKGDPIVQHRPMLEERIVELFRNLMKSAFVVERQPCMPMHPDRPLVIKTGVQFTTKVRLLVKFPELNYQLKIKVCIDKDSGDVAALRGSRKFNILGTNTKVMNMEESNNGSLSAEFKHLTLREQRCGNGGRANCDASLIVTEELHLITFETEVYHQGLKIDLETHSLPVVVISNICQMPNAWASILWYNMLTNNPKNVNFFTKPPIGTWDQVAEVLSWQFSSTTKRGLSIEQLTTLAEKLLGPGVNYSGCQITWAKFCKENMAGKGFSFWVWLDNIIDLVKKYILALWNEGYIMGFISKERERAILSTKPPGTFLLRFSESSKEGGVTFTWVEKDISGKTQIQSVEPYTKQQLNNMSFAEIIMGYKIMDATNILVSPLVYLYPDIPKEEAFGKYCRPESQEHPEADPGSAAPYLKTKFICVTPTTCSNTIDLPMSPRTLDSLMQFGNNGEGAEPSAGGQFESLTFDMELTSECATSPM

The first test concerns the target T1, pY705-STAT3 in PBMC (Homo sapiens, UniProt P40763).
T1 construct: Cryopreserved Peripheral Blood Mononuclear Cells (PBMC) are from AllCells; host or cells: cryopreserved PBMC
As to the kind of experiment: MSD-pSTAT-PBMC Assay (pSTAT3, IL-6 stimulated). The class given is cell-based. The following applies: PBMC, compound 3 hrs, then 10 ng/mL IL-6 for 10 min; Table 115; read-out: STAT3. The gist of the method: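 pY705-STAT3 was detected electrochemiluminescently on total-STAT3 capture plates, using lysates of human PBMCs given compound for 3 h and then IL-6 (10 ng/mL, 10 min). Values were background-subtracted against unstimulated wells and set relative to DMSO. IC50 was fitted with variable slope.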
On to `CCCOC(=O)[C@H](C)NP(=O)(Oc1ccccc1)[C@@H](F)c1ccc2sc(C(=O)N[C@H]3CC[C@@H](CC)C[C@H]4CC[C@@H](C(=O)N5CC(c6cnccc6N6CCC6)C5)N4C3=O)cc2c1` (stereo partly drawn) [Compound 493, propyl (((R)-(2-(((3S,6S,9R,10aR)-3-(3-(4-(azetidin-1-yl)pyridin-3-yl)azetidine-1-carbonyl)-9-ethyl-5-oxodecahydropyrrolo [1,2-a]azocin-6-yl)carbamoyl)benzo [b]thiophen-5-yl)fluoromethyl) (phenoxy)phosphoryl)-L-alaninate], for which the IC50 is < 0.1 µM.

Consider `CCCOC(=O)[C@H](C)NP(=O)(Cc1ccc2sc(C(=O)N[C@H]3CCC[C@H]4CC[C@@H](C(=O)N5CC(c6cccnc6)C5)N4C3=O)cc2c1)N1CCOCC1` (stereo partly drawn) [Compound 426, propyl (morpholino((2-(((3S,6S,9aS)-5-oxo-3-(3-(pyridin-3-yl)azetidine-1-carbonyl)octahydro-1H-pyrrolo[1,2-a]azepin-6-yl)carbamoyl)benzo [b]thiophen-5-yl)methyl)phosphoryl)-L-alaninate], for which the IC50 was > 3 µM.

For the compound `CCCOC(=O)[C@H](Cc1ccccn1)NP(=O)(Cc1ccc2sc(C(=O)N[C@H]3CCC[C@H]4CC[C@@H](C(=O)N5CC(c6cccnc6)C5)N4C3=O)cc2c1)Oc1ccccc1` (stereo partly drawn) [Compound 432, propyl (2S)-2-((((2-(((3S,6S,9aS)-5-oxo-3-(3-(pyridin-3-yl)azetidine-1-carbonyl)octahydro-1H-pyrrolo[1,2-a]azepin-6-yl)carbamoyl)benzo [b]thiophen-5-yl)methyl)(phenoxy)phosphoryl)amino)-3-(pyridin-2-yl)propanoate], the IC50 is 0.1 to 1 µM.

Turning to `CCCOC(=O)[C@H](C)NP(=O)(Cc1ccc2sc(C(=O)N[C@H]3CCC[C@H]4CC[C@@H](C(=O)N5CC(c6cnccc6O)C5)N4C3=O)cc2c1)Oc1ccccc1` (stereo partly drawn) [Compound 975, propyl (((2-(((3S,6S,9aS)-3-(3-(4-hydroxypyridin-3-yl)azetidine-1-carbonyl)-5-oxooctahydro-1H-pyrrolo[1,2-a]azepin-6-yl)carbamoyl)benzo [b]thiophen-5-yl)methyl)(phenoxy)phosphoryl)-L-alaninate], the IC50 was < 0.1 µM.

`CCCCOC(=O)[C@H](C)NP(=O)(Cc1ccc2sc(C(=O)N[C@H]3CCC[C@H]4CC[C@@H](C(=O)N5CC(c6ncccc6C)C5)N4C3=O)cc2c1)Oc1ccccc1` (stereo partly drawn) [Compound 288, butyl (((2-(((3S,6S,9aS)-3-(3-(3-methylpyridin-2-yl)azetidine-1-carbonyl)-5-oxooctahydro-1H-pyrrolo[1,2-a]azepin-6-yl)carbamoyl)benzo [b]thiophen-5-yl)methyl)(phenoxy)phosphoryl)-L-alaninate]: the IC50 lay in the range of 0.1 to 1 µM.

As for `CCCOC(=O)[C@H](C)NP(=O)(Cc1ccc2sc(C(=O)N[C@H]3CC[C@H](C)C[C@H]4CC[C@@H](C(=O)N5CC(c6cnccc6F)C5)N4C3=O)cc2c1)Oc1ccccc1` (stereo partly drawn) [Compound 993, propyl (((2-(((3S,6S,9S,10aR)-3-(3-(4-fluoropyridin-3-yl)azetidine-1-carbonyl)-9-methyl-5-oxodecahydropyrrolo [1,2-a]azocin-6-yl)carbamoyl)benzo [b]thiophen-5-yl)methyl)(phenoxy)phosphoryl)-L-alaninate], the IC50 is < 0.1 µM.

For `CCCCOC(=O)[C@@H]1CC(F)(F)CN1P(=O)(Oc1ccccc1)C(F)(F)c1ccc2sc(C(=O)N[C@H]3CCC[C@H]4CC[C@@H](C(=O)N5CC(c6cccnc6)C5)N4C3=O)cc2c1` (stereo partly drawn) [Compound 323, butyl (2S)-1-((difluoro(2-(((3S,6S,9aS)-5-oxo-3-(3-(pyridin-3-yl)azetidine-1-carbonyl)octahydro-1H-pyrrolo[1,2-a]azepin-6-yl)carbamoyl)benzo [b]thiophen-5-yl)methyl)(phenoxy)phosphoryl)-4,4-difluoropyrrolidine-2-carboxylate], the IC50 is > 3 µM.

`CCCOC(=O)[C@H](C)N[P@](=O)(Oc1ccccc1)[C@@H](F)c1ccc2sc(C(=O)N[C@H]3C[C@@H](C)C[C@H]4CC[C@@H](C(=O)N5CC(c6cnccc6OC(C)C)C5)N4C3=O)cc2c1` (single isomer, unassigned) [Compound 1034]: the IC50 is < 0.1 µM.

Turning to `CCCOC(=O)[C@H](C)N[P@](=O)(Oc1ccccc1)[C@H](F)c1ccc2sc(C(=O)N[C@H]3C[C@@H](C)C[C@H]4CC[C@@H](C(=O)N5CC(c6cnccc6C)C5)N4C3=O)cc2c1` (single isomer, unassigned) [Compound 1048], the IC50 is < 0.1 µM.

As for `CCCOC(=O)[C@H](C)NP(=O)(Cc1ccc2sc(C(=O)N[C@H]3CCC[C@H]4CC[C@@H](C(=O)N5CC(c6cccnc6C(F)F)C5)N4C3=O)cc2c1)Oc1ccccc1` (stereo partly drawn) [Compound 272, propyl (((2-(((3S,6S,9aS)-3-(3-(2-(difluoromethyl)pyridin-3-yl)azetidine-1-carbonyl)-5-oxooctahydro-1H-pyrrolo[1,2-a]azepin-6-yl)carbamoyl)benzo [b]thiophen-5-yl)methyl)(phenoxy)phosphoryl)-L-alaninate], the IC50 was < 0.1 µM.

Turning to `CCCOC(=O)[C@H](C)NP(=O)(Cc1ccc2sc(C(=O)N[C@H]3CCC[C@H]4CC[C@@H](C(=O)N5CC(c6cccnc6)C5)N4C3=O)cc2c1)Oc1c(C)cccc1C` (stereo partly drawn) [Compound 293, propyl ((2,6-dimethylphenoxy) ((2-(((3S,6S,9aS)-5-oxo-3-(3-(pyridin-3-yl)azetidine-1-carbonyl)octahydro-1H-pyrrolo[1,2-a]azepin-6-yl)carbamoyl)benzo [b]thiophen-5-yl)methyl)phosphoryl)-L-alaninate], the IC50 was < 0.1 µM.

For `CC(C)OC(=O)[C@H](C)NP(=O)(Oc1ccccc1)C(F)(F)c1ccc2sc(C(=O)N[C@H]3CCC[C@H]4CC[C@@H](C(=O)N5CC(c6cccnc6)C5)N4C3=O)cc2c1` (stereo partly drawn) [Compound 248, isopropyl ((difluoro(2-(((3S,6S,9aS)-5-oxo-3-(3-(pyridin-3-yl)azetidine-1-carbonyl)octahydro-1H-pyrrolo[1,2-a]azepin-6-yl)carbamoyl)benzo [b]thiophen-5-yl)methyl)(phenoxy)phosphoryl)-L-alaninate], the IC50 was > 3 µM.

Consider `C[C@H](NP(=O)(Cc1ccc2sc(C(=O)N[C@H]3CCC[C@H]4CC[C@@H](C(=O)N5CC(c6cccnc6)C5)N4C3=O)cc2c1)Oc1ccccc1)C(=O)OCc1ccccc1` (stereo partly drawn) [Compound 394, benzyl (((2-(((3S,6S,9aS)-5-oxo-3-(3-(pyridin-3-yl)azetidine-1-carbonyl)octahydro-1H-pyrrolo[1,2-a]azepin-6-yl)carbamoyl)benzo [b]thiophen-5-yl)methyl)(phenoxy)phosphoryl)-L-alaninate], for which the IC50 is < 0.1 µM.

On to `CCCOC(=O)[C@H](C)N[P@@](=O)(Oc1ccccc1)[C@@H](F)c1ccc2sc(C(=O)N[C@H]3CCC[C@H]4CC[C@@H](C(=O)N5CC(c6cnccc6OC)C5)N4C3=O)cc2c1` (single isomer, unassigned) [Compound 1039], for which the IC50 was < 0.1 µM.

For `O=C(N[C@H]1CCC[C@H]2CC[C@@H](C(=O)N3CC(c4cccnc4)C3)N2C1=O)c1cc2cc(CP(=O)(N[C@@H](CCc3ccccc3)C(=O)OCc3ccccc3)Oc3ccccc3)ccc2s1` (stereo partly drawn) [Compound 401, benzyl (2S)-2-((((2-(((3S,6S,9aS)-5-oxo-3-(3-(pyridin-3-yl)azetidine-1-carbonyl)octahydro-1H-pyrrolo[1,2-a]azepin-6-yl)carbamoyl)benzo [b]thiophen-5-yl)methyl)(phenoxy)phosphoryl)amino)-4-phenylbutanoate], the IC50 is > 3 µM.

Regarding `COc1ccncc1C1CN(C(=O)[C@@H]2CC[C@@H]3CCC[C@H](NC(=O)c4cc5cc([C@H](F)[P@@](=O)(N[C@@H](C)C(=O)OCC(C)(C)C)Oc6ccccc6)ccc5s4)C(=O)N32)C1` (single isomer, unassigned) [Compound 959], the IC50 is < 0.1 µM.

With `CCCOC(=O)[C@H](C)NP(=O)(Oc1ccccc1)C(C)c1ccc2sc(C(=O)N[C@H]3CCC[C@H]4CC[C@@H](C(=O)N5CC(c6cccnc6)C5)N4C3=O)cc2c1` (stereo partly drawn) [Compound 435, propyl ((1-(2-(((3S,6S,9aS)-5-oxo-3-(3-(pyridin-3-yl)azetidine-1-carbonyl)octahydro-1H-pyrrolo[1,2-a]azepin-6-yl)carbamoyl)benzo [b]thiophen-5-yl)ethyl)(phenoxy)phosphoryl)-L-alaninate], the IC50 was in the range of 0.1 to 1 µM.

For the compound `CCCOC(=O)[C@@H]1CCCN1P(=O)(Cc1ccc2sc(C(=O)N[C@H]3CCC[C@H]4CC[C@@H](C(=O)N5CC(c6cccnc6)C5)N4C3=O)cc2c1)N1CCC[C@H]1C(=O)OCCC` [Compound 310, dipropyl (((2-(((3S,6S,9aS)-5-oxo-3-(3-(pyridin-3-yl)azetidine-1-carbonyl)octahydro-1H-pyrrolo[1,2-a]azepin-6-yl)carbamoyl)benzo [b]thiophen-5-yl)methyl)phosphoryl) (S)-di-L-prolinate], the IC50 was in the range of 0.1 to 1 µM.

With `CCCOC(=O)[C@H](C)NP(=O)(Cc1ccc2sc(C(=O)N[C@H]3CCC[C@H]4CC[C@@H](C(=O)N5CC(c6cnccc6Cl)C5)N4C3=O)cc2c1)Oc1ccccc1` (stereo partly drawn) [Compound 268, propyl (((2-(((3S,6S,9aS)-3-(3-(4-chloropyridin-3-yl)azetidine-1-carbonyl)-5-oxooctahydro-1H-pyrrolo[1,2-a]azepin-6-yl)carbamoyl)benzo [b]thiophen-5-yl)methyl)(phenoxy)phosphoryl)-L-alaninate], the IC50 lay in the range of 0.1 to 1 µM.

Still in this test, the particulars now being: STAT3, PBMC, compound 3 hrs, then 10 ng/mL IL-6 for 10 min; Table 115.
Consider `CCCOC(=O)C(C)(C)NP(=O)(Cc1ccc2sc(C(=O)N[C@H]3CCC[C@H]4CC[C@@H](C(=O)N5CC(c6cccnc6)C5)N4C3=O)cc2c1)Oc1ccccc1` (stereo partly drawn) [Compound 445, propyl 2-methyl-2-((((2-(((3S,6S,9aS)-5-oxo-3-(3-(pyridin-3-yl)azetidine-1-carbonyl)octahydro-1H-pyrrolo[1,2-a]azepin-6-yl)carbamoyl)benzo [b]thiophen-5-yl)methyl)(phenoxy)phosphoryl)amino) propanoate], for which the IC50 was < 0.1 µM.
